From PubChem BioAssay AID1259407 (Chemical Carcinogenesis Research Information System (CCRIS), 2018)
Activity calls are given as the source filed them. The rule behind the calls is not given here.

System: CCRIS mutagenicity, Ames/micronucleus/aberration tests
Test: CCRIS mutagenicity studies

Cc1cccc(O)c1
mutagenic call (End Point: IN VITRO CHROMOSOMAL ABERRATIONS, Test System: SYRIAN HAMSTER EMBRYO (SHE) CELLS, Metabolic Activation: NONE): active; positive (structural changes) | mutagenic call (End Point: IN VITRO CHROMOSOMAL ABERRATIONS, Test System: SYRIAN HAMSTER EMBRYO (SHE) CELLS, Metabolic Activation: RAT, LIVER, S-9): active; positive (structural changes) | mutagenic call (Test System: AMES SALMONELLA TYPHIMURIUM, Strain/Indicator: TA98, Metabolic Activation: NONE, Method: PREINCUBATION): inactive; negative | mutagenic call (Test System: AMES SALMONELLA TYPHIMURIUM, Strain/Indicator: TA98, Metabolic Activation: RAT, LIVER, S-9, SODIUM PHENOBARBITAL AND 5,6-BENZOFLAVONE, Method: PREINCUBATION): inactive; negative | mutagenic call (Test System: AMES SALMONELLA TYPHIMURIUM, Strain/Indicator: TA100, Metabolic Activation: NONE, Method: PREINCUBATION): inactive; negative | mutagenic call (Test System: AMES SALMONELLA TYPHIMURIUM, Strain/Indicator: TA100, Metabolic Activation: RAT, LIVER, S-9, SODIUM PHENOBARBITAL AND 5,6-BENZOFLAVONE, Method: PREINCUBATION): inactive; negative | mutagenic call (Test System: AMES SALMONELLA TYPHIMURIUM, Strain/Indicator: TA102, Metabolic Activation: NONE, Method: PREINCUBATION): inactive; negative | mutagenic call (Test System: AMES SALMONELLA TYPHIMURIUM, Strain/Indicator: TA102, Metabolic Activation: RAT, LIVER, S-9, SODIUM PHENOBARBITAL AND 5,6-BENZOFLAVONE, Method: PREINCUBATION): inactive; negative | mutagenic call (Test System: AMES SALMONELLA TYPHIMURIUM, Strain/Indicator: TA104, Metabolic Activation: NONE, Method: PREINCUBATION): inactive; negative | mutagenic call (Test System: AMES SALMONELLA TYPHIMURIUM, Strain/Indicator: TA104, Metabolic Activation: RAT, LIVER, S-9, SODIUM PHENOBARBITAL AND 5,6-BENZOFLAVONE, Method: PREINCUBATION): inactive; negative | mutagenic call (Test System: AMES SALMONELLA TYPHIMURIUM, Strain/Indicator: TA1535, Metabolic Activation: NONE, Method: PREINCUBATION): inactive; negative | mutagenic call (Test System: AMES SALMONELLA TYPHIMURIUM, Strain/Indicator: TA1535, Metabolic Activation: RAT, LIVER, S-9, SODIUM PHENOBARBITAL AND 5,6-BENZOFLAVONE, Method: PREINCUBATION): inactive; negative | mutagenic call (Test System: AMES SALMONELLA TYPHIMURIUM, Strain/Indicator: TA1537, Metabolic Activation: NONE, Method: PREINCUBATION): inactive; negative | mutagenic call (Test System: AMES SALMONELLA TYPHIMURIUM, Strain/Indicator: TA1537, Metabolic Activation: RAT, LIVER, S-9, SODIUM PHENOBARBITAL AND 5,6-BENZOFLAVONE, Method: PREINCUBATION): inactive; negative | mutagenic call (Test System: Ames Salmonella typhimurium, Strain/Indicator: TA98, Metabolic Activation: Hamster, Liver, S-9, Aroclor 1254 (10%), Method: Preincubation): inactive; negative | mutagenic call (Test System: Ames Salmonella typhimurium, Strain/Indicator: TA98, Metabolic Activation: None, Method: Preincubation): inactive; negative | mutagenic call (Test System: Ames Salmonella typhimurium, Strain/Indicator: TA98, Metabolic Activation: Rat, Liver, S-9, Aroclor 1254 (10%), Method: Preincubation): inactive; negative | mutagenic call (Test System: Ames Salmonella typhimurium, Strain/Indicator: TA100, Metabolic Activation: Hamster, Liver, S-9, Aroclor 1254 (10%), Method: Preincubation): inactive; negative | mutagenic call (Test System: Ames Salmonella typhimurium, Strain/Indicator: TA100, Metabolic Activation: None, Method: Preincubation): inactive; negative | mutagenic call (Test System: Ames Salmonella typhimurium, Strain/Indicator: TA100, Metabolic Activation: Rat, Liver, S-9, Aroclor 1254 (10%), Method: Preincubation): inactive; negative | mutagenic call (Test System: Ames Salmonella typhimurium, Strain/Indicator: TA1535, Metabolic Activation: Hamster, Liver, S-9, Aroclor 1254 (10%), Method: Preincubation): inactive; negative | mutagenic call (Test System: Ames Salmonella typhimurium, Strain/Indicator: TA1535, Metabolic Activation: None, Method: Preincubation): inactive; negative | mutagenic call (Test System: Ames Salmonella typhimurium, Strain/Indicator: TA1535, Metabolic Activation: Rat, Liver, S-9, Aroclor 1254 (10%), Method: Preincubation): inactive; negative | mutagenic call (Test System: Ames Salmonella typhimurium, Strain/Indicator: TA1537, Metabolic Activation: Hamster, Liver, S-9, Aroclor 1254 (10%), Method: Preincubation): inactive; negative | mutagenic call (Test System: Ames Salmonella typhimurium, Strain/Indicator: TA1537, Metabolic Activation: None, Method: Preincubation): inactive; negative | mutagenic call (Test System: Ames Salmonella typhimurium, Strain/Indicator: TA1537, Metabolic Activation: Rat, Liver, S-9, Aroclor 1254 (10%), Method: Preincubation): inactive; negative | mutagenic call (Test System: E. COLI, Strain/Indicator: WP2UVRA/PKM101, Metabolic Activation: NONE, Method: PREINCUBATION): inactive; negative | mutagenic call (Test System: E. COLI, Strain/Indicator: WP2UVRA/PKM101, Metabolic Activation: RAT, LIVER, S-9, PHENOBARBITAL AND BETA-NAPHTHOFLAVONE, Method: PREINCUBATION): inactive; negative | mutagenic call (Test System: E. COLI, Strain/Indicator: WP2UVRA, Metabolic Activation: NONE, Method: PREINCUBATION): inactive; negative | mutagenic call (Test System: E. COLI, Strain/Indicator: WP2UVRA, Metabolic Activation: RAT, LIVER, S-9, PHENOBARBITAL AND BETA-NAPHTHOFLAVONE, Method: PREINCUBATION): inactive; negative
